Assay results from paper PMC6278399, “Synthesis and Anticancer Activity Evaluation of Hydrolyzed Derivatives of Panaxnotoginseng Saponins” (Molecules, 2018).

Legend:
[1] = design: method as in earlier work; conditions: stronger than ginsenoside-Rg3; cited from earlier work
[2] = MTT cytotoxicity assay, GES-1 normal cells; assay type: cell-based, human; conditions: human
From the text: (§1) In the study, five cancer cell lines (human colon cancer cells (HT-29), gastric cancer cells (BGC-823), cervical cancer cells (Hela), human breast cancer cells (MCF-7), and human lung cancer cells A549)), and two normal cell lines (human gastric epithelial cells (GES-1) and human ovarian epithelial cells (IOSE144)) were used for the evaluation of biological activity. IOSE144 cells were donated by Professor Piao Huri of Yanbian University, all other cells were purchased from the American Type Culture Collection (ATCC, Manassas, VA, USA). Cells were cultured in Dulbecco’s Modified Eagle’s Medium (DMEM), supplemented with 10% heat-inactivated fetal bovine serum (FBS), 1% 100 μg/mL penicillin and 100 μg/mL streptomycin in a humidified atmosphere containing 5% CO2 at 37 °C. Cell viability was measured using the MTT assay. Cells were seeded in 96 well microtiter plates in a volume of 100 μL medium. All compounds tested were dissolved and further diluted in DMSO. After overnight incubation, cells were treated with different test concentrations or carrier solvents alone in a final volume of 100 μL with five replicates each. […] Cells were treated with compound (80, 40, 20, 10, 5 μM) for 48 h. Then, 10 μL of MTT (5 mg/mL) was added to each well and the cells were incubated at 37 °C in the dark for 4 h. Supernatants were removed and formazan crystals were dissolved in DMSO (100 μL/well). The solution was agitated for 10 min, and the absorbance was measured at 490 nm using microplate reader (imark, BIO-RAD, Hercules, CA, USA) to calculate the 50% inhibitory concentration (IC50). Ginsenoside-Rg3, panaxadiol sapogenin (PD), AD-2 (25-OH-PPD) and AD-1 (25-OCH3-PPD) were used as standard reference compounds.

[3] = system: gastric cancer cells (BGC-823); assay: MTT cytotoxicity assay, BGC-823; assay type: cell-based, human; conditions: BGC-823, MTT, 48 h
From the text: as §1

[4] = system: cervical cancer cells (Hela); assay: MTT cytotoxicity assay, Hela; assay type: cell-based, human; conditions: 48 h
From the text: as §1

[5] = system: human colon cancer cells (HT-29); assay: MTT cytotoxicity assay, HT-29; assay type: cell-based; conditions: HT-29, MTT, 48 h
From the text: as §1

MCF-7 cells [6] = assay: Wound healing assay; assay type: cell-based, human; conditions: MCF-7, 30 μM, 24 h, serum-free
Experimental: MCF-7 cells were seeded in 10-cm dishes at a concentration of 1 × 10^5 cells/ mL and grown overnight. Then, a wound was created in the monolayer of cells by scratching the monolayer with a sharp tip followed by another 24 h of incubation in the presence of 30 μM of compound 3b or 0.1% DMSO under serum-free conditions, 30 μM of AD-1 as a positive control. The gap created was measured under a microscope to provide an indication of the wound healing capability of the cells.

[7] = system: human lung cancer cells A549; assay: MTT cytotoxicity assay, A549; assay type: cell-based; conditions: 48 h
From the text: as §1

[8] = MTT cytotoxicity assay, IOSE144 normal cells; assay type: cell-based, human; conditions: human
From the text: as §1

[9] = system: human breast cancer cells (MCF-7); assay: MTT cytotoxicity assay, MCF-7; assay type: cell-based; conditions: MCF-7, MTT, 48 h
From the text: as §1

MCF-7 cells [10] = assay: Cell cycle distribution assay, MCF-7; assay type: cell-based, human; conditions: MCF-7, 30 μM, 24 h; controls 0.73% (3b) and 1.69% (AD-1)
Experimental: MCF-7 cells treated with 30 μM of compound 3b were incubated for 24 h in CO2 incubator. AD-1 was tested as a positive control, and the experimental concentration of AD-1 was 30 μM. Cells were trypsinized, harvested, washed with PBS, and fixed with 75% ethanol overnight at −20 °C. Next, fixed cells were washed with PBS and stained for 4 h in the dark with a PI solution consisting of 50 μg/mL PI, 50 μg/mL RNase, 0.1% sodium citrate and 0.1% Triton X-100 (pH 8.0). Cell cycle distribution was determined using FACScan (Becton Dickinson, Franklin Lakes, NJ, USA).

[11] = system: five cancer cell lines (HT-29, BGC-823, Hela, MCF-7, A549); assay: Cytotoxic activity on five cancer cell lines (overall statement); assay type: cell-based, human; conditions: MTT
From the text: as §1

IOSE144 cells = assay: Cell cycle distribution assay, IOSE144; assay type: cell-based, human; conditions: IOSE144, 24 h; control 1.17%
[12] = system: human gastric epithelial cells (GES-1); assay: MTT cytotoxicity assay, GES-1 normal cells; assay type: cell-based; conditions: GES-1 normal cells, MTT, 48 h
From the text: as §1

[13] = system: human ovarian epithelial cells (IOSE144); assay: MTT cytotoxicity assay, IOSE144 normal cells; assay type: cell-based; conditions: IOSE144 normal cells, MTT, 48 h
From the text: as §1

[14] = GES-1 gastric epithelial cells (normal cell line), GES-1 normal cells, MTT, 48 h, read-out: IC50
[15] = IOSE144 ovarian epithelial cells (normal cell line), IOSE144 normal cells, MTT, 48 h, read-out: IC50

| SMILES | IC50 ([3]; Homo sapiens) | IC50 ([4]; Homo sapiens) | IC50 ([5]; Homo sapiens) | IC50 ([7]; Homo sapiens) | IC50 ([9]; Homo sapiens, MCF7) | IC50 at 48 h [2] | anticancer activity (in words) [11] | IC50 at 48 h [8] | melting point | other results |
| --- | --- | --- | --- | --- | --- | --- | --- | --- | --- | --- |
| COC(C)(C)CCC[C@@](C)(O)C1CC[C@]2(C)C1[C@H](O)CC1[C@@]3(C)CC[C@H](O)C(C)(C)C3CC[C@]12C (stereo partly drawn) [AD-1, 25-methoxyprotopanaxadiol, reference compound] | 16.6 ± 0.45 µM | 12.99 ± 0.06 µM | 16.6 ± 0.25 µM | 34.32 ± 0.31 µM | 7.34 ± 0.19 µM |  |  |  |  | antitumor activity compared with ginsenoside-Rg3 [1]: 5–15 fold; IC50 at 48 h [2, 14]: > 100 µM; MCF-7 cell migration (wound distance) (MCF-7 cells [6]): inhibited the migration of MCF-7 cells; IC50 at 48 h [8, 15]: > 100 µM; subG1 phase after treatment (MCF-7 cells [10]): 38.45% |
| CC(C)(O)CCC[C@@](C)(O)C1CC[C@]2(C)C1[C@H](O)CC1[C@@]3(C)CC[C@H](O)C(C)(C)C3CC[C@]12C (stereo partly drawn) [AD-2, 25-hydroxyprotopanaxadiol, reference compound] | 44.2 ± 1.06 µM | 48.6 ± 1.24 µM | 18.7 ± 0.28 µM | 34.3 ± 0.87 µM | 49.6 ± 1.35 µM |  |  |  |  | antitumor activity compared with ginsenoside-Rg3 [1]: 5–15 fold; IC50 at 48 h [2, 14]: > 100 µM; IC50 at 48 h [8, 15]: > 100 µM |
| CC(=O)Oc1ccccc1C(=O)OC1CC2C3(C)CCC(OC(=O)c4ccccc4OC(C)=O)C(C)(C)C3CCC2(C)C2(C)CCC(C3(C)CCCC(C)(C)O3)C12 [Compound 2b, 20(R)-Pananxadiol-3β, 12β-di-yl-2′-acetylbenzoate] | 8.12 ± 0.25 µM | 16.2 ± 0.34 µM | 5.27 ± 0.14 µM | 15.47 ± 0.13 µM | 10.25 ± 0.05 µM | > 100 µM | strong anticancer activity | > 100 µM | 238 to 240 °C |  |
| COC(C)(C)CCCC(C)(O)C1CCC2(C)C1C(OC(=O)c1ccccc1O)CC1C3(C)CCC(O)C(C)(C)C3CCC12C [Compound 3a, 20(R)-25-Methoxydammarane-3β,20-diol-12β-yl-2′-hydroxybenzoate] | 15.1 ± 0.24 µM | 9.78 ± 0.03 µM | 10.5 ± 0.25 µM | 13 ± 0.25 µM | 5.34 ± 0.04 µM | > 100 µM | strong anticancer activity | > 100 µM | 235 to 237 °C |  |
| CC(=O)Oc1ccccc1C(=O)OC1CCC2(C)C(CCC3(C)C2CC(O)C2C(C4(C)CCCC(C)(C)O4)CCC23C)C1(C)C (stereo not drawn) [Compound 3b] | 11.2 ± 0.16 µM | 20.9 ± 0.54 µM | 10.7 ± 0.12 µM | 14.37 ± 0.04 µM | 2.56 ± 0.09 µM | > 100 µM | strong anticancer activity | > 100 µM | 243 to 245 °C | subG1 phase after treatment (IOSE144 cells): 7.58%; subG1 phase after treatment (MCF-7 cells [10]): 56.95% |
| CC(C)(O)CCCC(C)(O)C1CCC2(C)C1C(OC(=O)c1ccccc1O)CC1C3(C)CCC(OC(=O)c4ccccc4O)C(C)(C)C3CCC12C [Compound 7a, 20(R)-Dammarane-20, 25-diol-3β, 12β-di-yl-2′-hydroxybenzoate] | 70.6 ± 2.12 µM | 35.2 ± 1.24 µM | 22.7 ± 0.46 µM | 8.52 ± 0.15 µM | 29.1 ± 0.69 µM | > 100 µM | strong anticancer activity | > 100 µM | 197 to 199 °C |  |
| CC(=O)Oc1ccccc1C(=O)OC1CCC2(C)C(CCC3(C)C2CC(O)C2C(C(C)(O)CCCC(C)(C)O)CCC23C)C1(C)C (stereo not drawn) [Compound 8b] | 10.2 ± 0.29 µM | 10 ± 0.53 µM | 13.25 ± 0.05 µM | 6.12 ± 0.1 µM | 14.7 ± 0.24 µM | > 100 µM | strong anticancer activity | > 100 µM | 254 to 256 °C |  |
| CC(C)=CCC[C@](C)(O)[C@H]1CC[C@]2(C)[C@@H]1[C@H](O)C[C@@H]1[C@@]3(C)CC[C@H](O[C@@H]4O[C@H](CO)[C@@H](O)[C@H](O)[C@H]4O[C@@H]4O[C@H](CO)[C@@H](O)[C@H](O)[C@H]4O)C(C)(C)[C@@H]3CC[C@]12C [Rg3, Ginsenoside-Rg3, reference compound] |  |  |  |  |  |  |  |  |  | IC50 [12]: > 100 µM; IC50 [3]: > 100 µM; IC50 [4]: 85.2 ± 1.59 µM; IC50 [5]: > 100 µM; IC50 [7]: > 100 µM; IC50 [13]: > 100 µM; IC50 [9]: 92.1 ± 2.36 µM |
